Laboratory results published in article PMC9913425, “Pentacyclic Triterpenoids-Based Ionic Compounds: Synthesis, Study of Structure–Antitumor Activity Relationship, Effects on Mitochondria and Activation of Signaling Pathways of Proliferation, Genome Reparation and Early Apoptosis” (Cancers, 2023).
Where a name gives a salt, the structure may show the parent alone.

Tests used:
[1] = system: HL60; experiment: In vitro cytotoxicity, IC50 by flow cytometry (Guava ViaCount); type: cell-based, human
Method: (§1) Human cancer cell line HeLa, HL60, A2780 was obtained from the HPA Culture Collections (Salisbury, UK). Cells (Jurkat, K562, U937, Hek293, Fibroblasts) were purchased from Russian Cell Culture Collection (Institute of Cytology of the Russian Academy of Sciences, […], Russia) and cultured according to standard protocols and sterile technique. […] Cells were maintained in RPMI 1640 (Jurkat, K562, U937, HL60) (Gibco, Billings, MT, USA) supplemented with […], 10% FBS (Sigma) and 100 units/mL penicillin–streptomycin (Sigma). All types of cells were grown in an atmosphere of 5% CO2 at 37 °C. The cells were subcultured at 2–3 days intervals. Cells were then seeded in 24-well plates at 5 × 10^4 cells per well and incubated overnight. Jurkat, K562, U937, HL60 cells were subcultured at 2-day intervals with a seeding density of 1 × 10^5 cells per 24-well plates in RPMI with 10% FBS.
(§2) The antitumor activity of the synthesized ionic compounds was initially assessed in vitro on Jurkat, K562, U937, HL60, HEK293, A2780 cell lines, including the determination of IC50 by flow cytometry involving Guava ViaCount (Millipore) reagent kits.

[2] = system: A2780; experiment: as above; type: cell-based, human
Method: as §1, §2

[3] = system: Jurkat; experiment: as above; type: cell-based; conditions: Jurkat cells
Method: as §1, §2

[4] = system: U937; experiment: as above; type: cell-based
Method: as §1, §2

[5] = system: K562; experiment: as above; type: cell-based
Method: as §1, §2

[6] = system: HEK293; experiment: as above; type: cell-based; conditions: conditionally normal
Method: as §1, §2

[7] = system: mitochondria of Jurkat tumor cells; experiment: Mitochondrial damage (MitoSense Red staining); type: cell-based; conditions: compound at IC50 concentration, incubation 2 h
[8] = system: Jurkat cells; experiment: Apoptosis/necrosis induction (Annexin V Alexa Fluor488, 7AAD staining); type: cell-based; conditions: compound at IC50 concentration, incubation 2 h
Description: Multiparametric evaluation of marker molecules, along with the detection of damage to the mitochondrial membrane, makes it possible to clearly determine the type of cell death. The method of cell staining with three different dyes (Annexin V Alexa Fluor488, 7AAD and MitoSense Red) provides simultaneous specification of various aspects of the state of the cell membrane, the state of DNA and the viability of mitochondria; together, it is a reliable sign of intrinsic and mitochondrial apoptosis pathway. Normal cells with intact mitochondrial membranes have high MitoSense Red fluorescence, while cells with decoupled oxidation and phosphorylation have much lower fluorescence. […]
Figure 1 The ratio of the level of mito-damage and the level of apoptosis in Jurkat cells of ionic compounds based on ursolic, oleanolic and betulinic acids.

[9] = system: Chk1; experiment: Luminex xMAP DNA Damage/Genotoxicity panel, phosphorylated Chk1; type: cell-based; conditions: Jurkat cells; 12a 0.006 µM, 13d 0.004 µM per 100,000 cells; 6 and 12 h
Description: [Worded in the source for another target; used here, by the source, with some conditions changed.] (§3) The determination of proteins in a cell by Luminex xMAP technology is characterized by the presence of multiplex multiparametric analysis with the simultaneous use of a multiplex of antibodies with a fluorescent label and magnetic particles, thereby resulting in an increase in the sensitivity of the technique and expansion of the dynamic range, as well as an increase in detection accuracy. Luminex XMAP technology provides a simultaneous analysis of a sufficient number of different proteins in various types of biological fluids (plasma, serum, cerebrospinal fluid, follicular fluid, tissue lysate, etc.) and in cell supernatants. Consequently, multiplexing saves time/costs and ensures the same conditions for the measurements, which is essential for significance and statistical processing.
(§4) Magnetic microspheres (stained inside with two fluorescent dyes) in combination with monoclonal antibodies against the analyzed analytes (the main intracellular kinases in this case) are incubated with the samples and standards; then, the samples/standards are incubated with biotinylated monoclonal antibodies against the analyzed analytes and, finally, with a solution of streptavidin–phycoerythrin. The Luminex technology identifies the different proteins present in each well and converts the mean fluorescence intensity (MFI) of each measured cytokine to pg/mL using software and standard curves. This approach is successfully applied in fundamental and clinical research. In this work, we analyzed various protein analytes that make up the phosphorylated and non-phosphorylated fractions of the main kinases in the signaling pathways: CREB, JNK, NFkB, p38, ERK1/2, Akt, p70S6K, STAT3, STAT5 proteins in six samples of lysates of Jurkat tumor cells by Luminex technology (MILLIPLEX® MAP 9-Plex Multi-Pathway 9-plex Magnetic Bead Kit).

[10] = system: Chk2; experiment: Luminex xMAP DNA Damage/Genotoxicity panel, phosphorylated Chk2; type: cell-based; conditions: Jurkat cells; 12a 0.006 µM, 13d 0.004 µM per 100,000 cells; 6 and 12 h
Description: [Worded in the source for another target; used here, by the source, with some conditions changed.] as §3, §4

[11] = system: Jurkat cells; experiment: Cell cycle analysis (Guava Cell Cycle Reagent); type: cell-based; conditions: IC50 concentration, 24 h, flow histogram
Method: Our findings are consistent with the literature data that many ICs predominantly affect the G2 and S phases, reducing them.
The incubation time of ionic liquids with cells was 24 h. […] It is listed because the picture prints the label with values. / The fit parameters printed in each histogram (RMS, Mean G1, Mean G2, G2/G1, CV G1, CV G2) were left out as statistics of the cell-cycle model.

[12] = system: γH2AX; experiment: Luminex xMAP DNA Damage/Genotoxicity panel, phosphorylated γH2AX; type: cell-based; conditions: Jurkat cells; first six hours of incubation
Description: as §3, with “processing. Simultaneous measurement of cytokines by bead multiplex analysis has certain similarities with ELISA, in particular the use of antibodies, but has a fundamental difference in using magnetic fluorescent beads coupled to antikinase monoclonal antibodies.” for “processing.”
as §4
Phosphorylation of histone H2AX at serine 139 (γH2AX) is an early stage in the cellular response to DNA damage, when the damage brings about formation of a double-strand break (DSB). γH2AX foci, considered as markers of DNA double-strand breaks, are easily detected by immunofluorescence microscopy and flow cytometry. The two main signaling pathways ATM/Chk2 and ATR/Chk1 respond to DNA damage and both lead to H2AX phosphorylation, but the ATR/Chk1 pathway causes γH2AX formation to a much lesser extent. The role of γH2AX in DNA repair is also discussed.
Incubation time with the test compounds was 6 and 12 h. p < 0.001 (***).

[13] = system: ATR kinase; experiment: Luminex xMAP DNA Damage/Genotoxicity panel, ATR kinase content; type: cell-based; conditions: Jurkat cells; 12a 0.006 µM, 13d 0.004 µM per 100,000 cells; 6 and 12 h
[14] = Homo sapiens, HL-60, HL60 cells
[15] = Homo sapiens, A2780, A2780 cells
[16] = Homo sapiens, U-937, U937 cells
[17] = Homo sapiens, HEK293, HEK293 cells

Structure (SMILES): C[n+]1ccn(CCCCOC(=O)[C@]23CCC(C)(C)CC2C2=CCC4[C@@]5(C)CC[C@H](O)C(C)(C)C5CC[C@@]4(C)[C@]2(C)CC3)c1 (stereo partly drawn) (as salt: bromide) [9b, 1-(4-{[(3β)-3-Hydroxyolean-12-en-28-oyl]oxy}butyl)-3-methylimidazolium bromide]
- melting point: 148 to 150 °C

Structure (SMILES): CC(=O)O[C@H]1CC[C@@]2(C)C(CC[C@]3(C)C2CC=C2C4CC(C)(C)CC[C@]4(C(=O)OCCCCCCn4cc[n+](C)c4)CC[C@]23C)C1(C)C (stereo partly drawn) (as salt: bromide) [9d, 1-(6-{[(3β)-3-Acetyloxyolean-12-en-28-oyl]oxy}hexyl)-3-methylimidazolium bromide]
- melting point: 151 to 153 °C

Structure (SMILES): Cn1cc[n+](CCCCCCOC(=O)[C@]23CCC(C)(C)C[C@H]2C2=CC[C@@H]4[C@@]5(C)CC[C@H](O)C(C)(C)[C@@H]5CC[C@@]4(C)[C@]2(C)CC3)c1.F[P-](F)(F)(F)(F)F [13c, 1-(6-{[(3β)-3-Hydroxyolean-12-en-28-oyl]oxy}hexyl)-3-methylimidazolium Hexafluorophosphate]
- IC50 ([1]; HL60 cells): 3 ± 1 nM
- IC50 ([2]; A2780 cells): 14 ± 1 nM
- IC50 [3]: 8 ± 1 nM
- IC50 ([4]; U937 cells): 5 ± 1 nM
- IC50 ([5]; K562 cells): 7 ± 1 nM
- IC50 ([6]; HEK293 cells): 32 ± 3 nM
- Mito-Damage (%) [7]: 8.32%
- Apoptosis (%) Early [8]: 3.62%
- Apoptosis (%) Late [8]: 5.20%
- Apoptosis (%) Necrosis [8]: 1.78%

Structure (SMILES): C[n+]1ccn(CCCCCCOC(=O)[C@]23CCC(C)(C)CC2C2=CCC4[C@@]5(C)CC[C@H](O)C(C)(C)C5CC[C@@]4(C)[C@]2(C)CC3)c1.O=S(=O)([O-])c1ccccc1 (stereo partly drawn) [13e, 1-(6-{[(3β)-3-Hydroxyolean-12-en-28-oyl]oxy}hexyl)-3-methylimidazolium Benzenesulfonate]
- IC50 ([1]; HL60 cells): 4 ± 1 nM
- IC50 ([2]; A2780 cells): 24 ± 2 nM
- IC50 [3]: 11 ± 1 nM
- IC50 ([4]; U937 cells): 14 ± 1 nM
- IC50 ([5]; K562 cells): 17 ± 1 nM
- IC50 ([6]; HEK293 cells): 46 ± 4 nM
- Mito-Damage (%) [7]: 7.71%
- Apoptosis (%) Early [8]: 6.26%
- Apoptosis (%) Late [8]: 3.12%
- Apoptosis (%) Necrosis [8]: 1.52%

Structure (SMILES): C=C(C)[C@@H]1CC[C@]2(C(=O)[O-])CC[C@]3(C)[C@H](CC[C@@H]4[C@@]5(C)CC[C@H](O)C(C)(C)[C@@H]5CC[C@]43C)[C@@H]12.CCn1cc[n+](C)c1 [17a, 1-Ethyl-3-methylimidazolium (3β)-3-hydroxyolup-20(29)-en28-oylate]
- IC50 ([1]; HL60 cells): 17 ± 2 nM
- IC50 ([2]; A2780 cells): 81 ± 8 nM
- IC50 [3]: 18 ± 1 nM
- IC50 ([4]; U937 cells): 34 ± 2 nM
- IC50 ([5]; K562 cells): 41 ± 2 nM
- IC50 ([6]; HEK293 cells): 182 ± 17 nM
- Mito-Damage (%) [7]: 8.84%
- Apoptosis (%) Early [8]: 2.91%
- Apoptosis (%) Late [8]: 1.38%
- Apoptosis (%) Necrosis [8]: 3.30%

Structure (SMILES): N#CC(C#N)=NNc1cccc(Cl)c1 [CCCP]
- content of phosphorylated checkpoint kinase Chk1 [9]: significantly decreases
- content of phosphorylated checkpoint kinase Chk2 [10]: significantly decreases

Structure (SMILES): N.N.[Cl][Pt][Cl] [cisplatin, reference compound]
- Freq Sub-G1 (hypodiploid cell population) [11]: 32.27%

Structure (SMILES): CC(=O)O[C@H]1CC[C@@]2(C)C(CC[C@]3(C)C2CC=C2C4CC(C)(C)CC[C@]4(C(=O)OCCCCCCOC(=O)c4nccn4C)CC[C@]23C)C1(C)C (stereo partly drawn) [compound 3, 6-{[(1-Methyl-1H-imidazol-2-yl)carbonyl]oxy}hexyl (3β)-3-(acetyloxy)olean-12-en-28-oate]
- melting point: 134 to 136 °C
- IC50 [1, 14]: > 4000 nM
- IC50 [2, 15]: > 4000 nM
- IC50 ([3]; Homo sapiens, Jurkat): > 4000 nM
- IC50 [4, 16]: > 4000 nM
- IC50 ([5]; Homo sapiens, K562, K562 cells): > 4000 nM
- IC50 [6, 17]: > 4000 nM

Structure (SMILES): CC(=O)O[C@H]1CC[C@@]2(C)C(CC[C@]3(C)C2CC=C2C4CC(C)(C)CC[C@]4(C(=O)OCCCCCCOC(=O)c4cncn4C)CC[C@]23C)C1(C)C (stereo partly drawn) [compound 4, 6-{[(1-Methyl-1H-imidazol-5-yl)carbonyl]oxy}hexyl (3β)-3-(acetyloxy)olean-12-en-28-oate]
- melting point: 123 to 125 °C
- IC50 [1, 14]: > 4000 nM
- IC50 [2, 15]: > 4000 nM
- IC50 ([3]; Homo sapiens, Jurkat): > 4000 nM
- IC50 [4, 16]: > 4000 nM
- IC50 ([5]; Homo sapiens, K562, K562 cells): > 4000 nM
- IC50 [6, 17]: > 4000 nM

Structure (SMILES): CO[C@H]1C[C@@H]2CC[C@@H](C)[C@@](O)(O2)C(=O)C(=O)N2CCCC[C@H]2C(=O)O[C@H]([C@H](C)C[C@@H]2CC[C@@H](O)[C@H](OC)C2)CC(=O)[C@H](C)/C=C(\C)[C@@H](O)[C@@H](OC)C(=O)[C@H](C)C[C@H](C)/C=C/C=C/C=C/1C [rapamycin, reference compound]
- increase in the phosphorylated γH2AX histone fraction [12]: ~9000 times
- level of ATR kinase [13]: elevated levels
- content of phosphorylated checkpoint kinase Chk1 [9]: significantly decreases
- content of phosphorylated checkpoint kinase Chk2 [10]: significantly decreases

Structure (SMILES): CN[C@@H]1C[C@H]2O[C@@](C)([C@@H]1OC)n1c3ccccc3c3c4c(c5c6ccccc6n2c5c31)C(=O)NC4 [staurosporine]
- increase in the phosphorylated γH2AX histone fraction [12]: ~9000 times
- content of phosphorylated checkpoint kinase Chk1 [9]: significantly decreases
- content of phosphorylated checkpoint kinase Chk2 [10]: significantly decreases

Structure (SMILES): CC(C)[C@@H]1NC(=O)[C@H](C)OC(=O)[C@@H](C(C)C)NC(=O)[C@@H](C(C)C)OC(=O)[C@H](C(C)C)NC(=O)[C@H](C)OC(=O)[C@@H](C(C)C)NC(=O)[C@@H](C(C)C)OC(=O)[C@H](C(C)C)NC(=O)[C@H](C)OC(=O)[C@@H](C(C)C)NC(=O)[C@@H](C(C)C)OC1=O [valinomycin]
- level of ATR kinase [13]: elevated levels
- content of phosphorylated checkpoint kinase Chk1 [9]: significantly decreases
- content of phosphorylated checkpoint kinase Chk2 [10]: significantly decreases
